According to patent US20230060425A1, “FUSED BICYCLIC HETEROCYCLE DERIVATIVES AS PESTICIDES” (Bayer Aktiengesellschaft, priority 2019, published 2023):
Like-named read-outs stand apart in the source and are kept apart here.

What was measured:
Assay type in all cases: in vivo
Ctenocephalides felis = Ctenocephalides felis oral test; details: 48 h, application rate 100 ppm, in citrated cattle blood, after 2 days, read-out: efficacy (kill in %)
Description: Ctenocephalides felis—Oral Test
Solvent: Dimethyl sulfoxide
To produce a suitable active compound formulation, 10 mg of active compound are mixed with 0.5 ml of dimethyl sulfoxide. Dilution with citrated cattle blood gives the desired concentration.
About 20 unfed adult cat fleas (Ctenocephalides felis) are placed into a chamber which is closed at the top and bottom with gauze. A metal cylinder whose bottom end is closed with parafilm is placed onto the chamber. The cylinder contains the blood/active compound formulation, which can be imbibed by the fleas through the parafilm membrane.
After 2 days, the kill in % is determined. 100% means that all of the fleas have been killed; 0% means that none of the fleas have been killed.

Myzus persicae [1] = assay: Myzus persicae oral test; details: 120 h, read-out: efficacy
Description: Solvent: 100 parts by weight of acetone
To produce a suitable preparation of active compound, 1 part by weight of active compound is dissolved using the specified parts by weight of solvent and made up with water until the desired concentration is attained.
50 μl of the active compound preparation are transferred into microtitre plates and made up to a final volume of 200 μl with 150 μl of IPL41 insect medium (33%+15% sugar). Subsequently, the plates are sealed with parafilm, which a mixed population of green peach aphids (Myzus persicae) within a second microtitre plate is able to puncture and imbibe the solution through it.
(§1) After 5 days, the efficacy in % is determined. 100% means that all the aphids have been killed; 0% means that no aphids have been killed.

Myzus persicae [2] = assay: Myzus persicae spray test; details: foliar, 120 h, application rate 100 g/ha, Chinese cabbage leaf discs, after 5 days, read-out: efficacy
Description: Myzus persicae—Spray Test
(§2) Solvent: • 78 parts by weight of acetone • 1.5 parts by weight of dimethylformamide
(§3) Emulsifier: alkylaryl polyglycol ether
(§4) To produce a suitable active compound preparation, 1 part by weight of active compound is dissolved using the stated parts by weight of solvent and made up with water containing an emulsifier concentration of 1000 ppm until the desired concentration is attained. To produce further test concentrations, the formulation is diluted with emulsifier-containing water.
Discs of Chinese cabbage leaves (Brassica pekinensis) infested by all stages of the green peach aphid (Myzus persicae) are sprayed with an active compound formulation of the desired concentration.
as §1

Spodoptera frugiperda = Spodoptera frugiperda spray test; details: foliar, 168 h, read-out: efficacy
Description: Spodoptera frugiperda—Spray Test
(§5) Solvent: • 78.0 parts by weight of acetone • 1.5 parts by weight of dimethylformamide
as §3
To produce further test concentrations, the formulation is diluted with emulsifier-containing water.
After 7 days, the efficacy in % is determined. 100% means that all the caterpillars have been killed; 0% means that no caterpillar has been killed.

Diabrotica balteata = Diabrotica balteata spray test; details: 168 h, application rate 160 μg/cavity (μg/well), wheat grains, after 7 days, read-out: efficacy
Description: Diabrotica balteata—Spray Test
as §2, §3, §4
Pre-swollen wheat grains (Triticum aestivum) are incubated in a multiwell plate filled with agar and a little water for one day (5 seed grains per well). The germinated wheat grains are sprayed with an active compound preparation of the desired concentration. Subsequently, each cavity is infected with 10-20 beetle larvae of Diabrotica balteata.
After 7 days, the efficacy in % is determined. 100% means that all wheat plants have grown as in the untreated, uninfected control; 0% means that no wheat plant has grown.

Phaedon cochleariae = Phaedon cochleariae spray test; details: foliar, 168 h, read-out: efficacy
Description: Phaedon cochleariae—Spray Test
as §5, §3, §4
Discs of Chinese cabbage leaves (Brassica pekinensis) are sprayed with an active compound formulation of the desired concentration and, after drying, populated with larvae of the mustard beetle (Phaedon cochleariae).
After 7 days, the efficacy in % is determined. 100% means that all the beetle larvae have been killed; 0% means that no beetle larvae have been killed.

[3] = application rate 4 ppm, after 5 days
[4] = application rate 100 g/ha, maize leaf discs, after 7 days
[5] = application rate 100 g/ha, Chinese cabbage leaf discs, after 7 days

SMILES | pest or weed control at 4 ppm (Myzus persicae [1]; [3]) | pest or weed control at 100 g/ha (Myzus persicae [2]) | pest or weed control at 100 g/ha (Spodoptera frugiperda; [4]) | pest or weed control at 160 µg/well (Diabrotica balteata) | other results
CCS(=O)(=O)c1c(-c2nc3cc(C(F)(F)F)nnc3n2C)ncc2cc(C)ccc12 [Example I-003] | 100% | 90% |  |  | pest or weed control at 100 ppm (Ctenocephalides felis): 80%
CCS(=O)(=O)c1c(-c2nc3cc(C(F)(F)F)cnc3n2C)ncc2cc(OC)ccc12 [Example I-033] | 100% |  | 100% |  | 
CCS(=O)(=O)c1c(-c2nc3cc(C(F)(F)C(F)(F)F)ncc3n2C)ncc2c(Br)cccc12 [Example I-019] | 100% |  | 100% | 100% | 
CCS(=O)(=O)c1c(-c2nc3cc(C(F)(F)C(F)(F)F)cnc3n2C)ncc2cc(OCC(F)F)ccc12 [Example I-049] |  |  | 100% | 80% | 
CCS(=O)(=O)c1c(-c2nc3cc(C(F)(F)C(F)(F)F)cnc3n2C)ncc2cc(C3CC3)ccc12 [Example I-050] | 90% |  | 100% | 100% | 
CCS(=O)(=O)c1c(-c2nc3cc(C(F)(F)C(F)(F)F)cnc3n2C)ncc2cc(OCC(F)(F)F)ccc12 [Example I-048] |  |  | 100% | 100% | 
CCS(=O)(=O)c1c(-c2nc3cc(C(F)(F)C(F)(F)F)cnc3n2C)ncc2c(C(F)(F)F)cccc12 [Example I-014] | 90% | 100% | 100% |  | pest or weed control at 100 g/ha (Phaedon cochleariae; [5]): 100%
CCS(=O)(=O)c1c(-c2nc3cc(C(F)(F)F)nnc3n2C)ncc2ccc(C(F)(F)F)cc12 [Example I-045] | 100% | 100% | 100% | 100% | 
CCS(=O)(=O)c1c(-c2nc3cc(C(F)(F)F)nnc3n2C)ncc2cc(Br)ccc12 [Example I-028] | 100% | 90% | 100% | 80% | 
CCS(=O)(=O)c1c(-c2nc3cc(C(F)(F)C(F)(F)F)cnc3n2C)ncc2c(C#N)cccc12 [Example I-030] | 100% |  | 100% | 100% | 
CCS(=O)(=O)c1c(-c2nc3cc(S(=O)(=O)C(F)(F)F)cnc3n2C)ncc2c(Br)cccc12 [Example I-029] | 100% | 90% | 100% | 100% | 
CCS(=O)(=O)c1c(-c2nc3cc(C(F)(F)F)cnc3n2C)ncc2ccc(C(F)(F)F)cc12 [Example I-021] | 100% |  | 100% |  | pest or weed control at 100 g/ha (Phaedon cochleariae; [5]): 100%
CCS(=O)(=O)c1c(-c2nc3cc(C(F)(F)C(F)(F)F)nnc3n2C)ncc2c(Cl)cccc12 [Example I-052] | 100% |  | 100% | 100% | 
CCS(=O)(=O)c1c(-c2nc3cc(S(=O)(=O)C(F)(F)F)cnc3n2C)ncc2cc(Br)ccc12 [Example I-016] | 100% |  | 100% | 100% | 
CCS(=O)(=O)c1c(-c2nc3cc(C(F)(F)F)cnc3n2C)ncc2cc(C3CC3)ccc12 [Example I-007] | 100% |  | 67% |  | pest or weed control at 100 g/ha (Phaedon cochleariae; [5]): 100%
CCS(=O)(=O)c1c(-c2nc3cc(C(F)(F)F)cnc3n2C)ncc2cc(NC(C)=O)ccc12 [Example I-035] | 100% | 90% |  |  | pest or weed control at 100 g/ha (Phaedon cochleariae; [5]): 100%
CCS(=O)(=O)c1c(-c2nc3cc(C(F)(F)F)nnc3n2C)ncc2ccc(C)cc12 [Example I-044] | 100% | 90% |  | 100% | 
CCS(=O)(=O)c1c(-c2nc3cc(C(F)(F)F)cnc3n2C)ncc2cc(NC(=O)OC)ccc12 [Example I-022] |  |  |  |  | pest or weed control at 4 ppm (Myzus persicae [1]): 100%; pest or weed control at 100 g/ha (Phaedon cochleariae; in Brassica rapa): 100%; pest or weed control at 100 g/ha (Spodoptera frugiperda; in Zea mays): 100%
CCS(=O)(=O)c1c(-c2nc3cc(C(F)(F)C(F)(F)F)nnc3n2C)ncc2cc(C#N)ccc12 [Example I-051] | 100% |  | 100% | 100% | 
CCS(=O)(=O)c1c(-c2nc3cc(C(F)(F)C(F)(F)F)nnc3n2C)ncc2c(Br)cccc12 [Example I-046] | 100% |  | 100% | 100% | 
CCS(=O)(=O)c1c(-c2nc3cc(C(F)(F)F)nnc3n2C)ncc2ccc(Cl)cc12 [Example I-039] | 100% |  | 100% | 100% | 
CCS(=O)(=O)c1c(-c2nc3cc(C(F)(F)C(F)(F)F)nnc3n2C)ncc2cc(Br)ccc12 [Example I-043] | 100% | 90% | 100% | 100% | 
CCS(=O)(=O)c1c(-c2nc3cc(C(F)(F)C(F)(F)F)cnc3n2C)ncc2c(Cl)cccc12 [Example I-031] | 100% |  | 100% | 100% | 
CCS(=O)(=O)c1c(-c2nc3cc(C(F)(F)F)ncc3n2C)ncc2c(Br)cccc12 [Example I-018] | 100% | 100% |  | 100% | 
CCS(=O)(=O)c1c(-c2nc3cc(C(F)(F)F)cnc3n2C)ncc2cc(SCC(F)(F)F)ccc12 [Example I-002] | 100% | 90% |  |  | pest or weed control at 100 g/ha (Phaedon cochleariae; [5]): 100%
CCS(=O)(=O)c1c(-c2nc3cc(C(F)(F)F)cnc3n2C)ncc2cc(C#N)ccc12 [Example I-001] | 100% | 90% | 100% |  | pest or weed control at 100 g/ha (Phaedon cochleariae; [5]): 100%
CCS(=O)(=O)c1c(-c2nc3cc(C(F)(F)F)cnc3n2C)ncc2cc(NC(=O)C3CC3)ccc12 [Example I-038] | 100% |  | 100% |  | pest or weed control at 100 g/ha (Phaedon cochleariae; [5]): 100%
CCS(=O)(=O)c1c(-c2nc3cc(C(F)(F)C(F)(F)F)cnc3n2C)ncc2cc(OCC(C)(F)F)ccc12 [Example I-053] |  |  | 100% | 100% | 
